System: MDA-MB231, T47D, T47D R+ doxo, U251 and U87 cells
Test: Crystal violet proliferation test at 2 μM, 48 h or 72 h
Type: cell-based
Description: Each cell line is seeded in 96-well plates (100 μL medium/well) according to the following conditions:
After 48 h or 72 h of treatment, the medium of each well is removed then a washing is carried out with 100 μL of PBS.
The cells are then fixed with 100 μL of paraformaldehyde 4% for 20 minutes, followed by two washings with 500 μL of PBS.
The percentage of cells adhered is highlighted by a crystal violet coloration.
100 μL of crystal violet at 0.1% (1/5 dilution in H2O of the stock solution: 0.5% crystal violet 2% filtered ethanol 0.22 μM) is added in each well.
After 30 minutes of incubation at ambient temperature, the wells are rinsed 3 times with distilled water, then correctly dried by patting on a sheet of absorbent paper.
100 μL of 10% acetic acid is then added to each well.
The plate is stirred until total solubilisation of the crystal violet crystals (around 10 minutes).

With `[Ru+2].c1ccc(-c2cc(-c3ccccn3)nc(-c3ccccn3)c2)cc1.c1ccc(-c2cc(-c3ccccn3)nc(-c3ccccn3)c2)cc1` [Ru] the “inhibition of the proliferation (crystal violet)” value was “does not lead to any inhibition of the proliferation”.
